In patent US7977069B2, “DNA encoding a CCK-8S G-protein coupled receptor, and vectors, transformants, cell kits, and methods employing such DNA” (Daiichi Sankyo Company, Limited, priority 2003, dated 2011):

Columns and labels:
variant 3 gene product = assay: Change in intracellular Ca2+ concentration in variant 3 stably expressing cell line; type: cell-based, human; details: A23187 20 μM
Experimental: The function of variant 3 gene was analyzed using stably expressing cell line of variant 3 gene by investigating a change in intracellular calcium concentration (Ca^2+) caused by CCK-8S. The change in intracellular calcium concentration (Ca^2+) was measured using the same method described in Example 5. The stably expressing cell line of variant 3 gene was prepared using the variant 3 gene expression vector constructed in Example 7 by the method similar to the method described in Example 7.
(§1) The cell line was seeded in 96-well plates (plates with a black wall surface and transparent bottom) at 3×10^4 cells/100 μL medium/well and cultured overnight at 37° C. in the presence of 5% CO2. The next day, 50 μL of the medium was exited from each well, and 50 μL of loading buffer was added to each well to allow for a reaction at room temperature for 1 h so as to incorporate fluorescent dye contained in the loading buffer into cells. The loading buffer was prepared by the same method as described in Example 5. After the reaction, a change in the fluorescence intensity upon addition of CCK-8S was measured along with time for each well for 40 sec using FLEXstation (Molecular Devices Corp.). CCK-8S was used at a final concentration of 10 pM-1 μM. Further, A23187 was used at a final concentration of 20 μM as a positive control of the assay.

CHO-K1 cell line = assay: Change in intracellular Ca2+ concentration in non-transfected CHO-K1 host cell line (negative control cells); type: cell-based, Chinese hamster; details: for increase in intracellular Ca2+ concentration: CHO-K1 cell line not transfected, peptide final concentration 1 nM (Example 5)
Experimental: (§2) A specific method for measuring a change in intracellular Ca^2+ concentration in the HA-ph01207#10-6 cell line produced by CCK-8S (SEQ ID NO: 14) and the results thereof are described below. HA-ph01207#10-6 cell line was seeded in 96-well plates (plates with a black wall surface and transparent bottom) at a cell count of 2×10^4/100 μL medium/well and cultured at 37° C. in the presence of 5% CO2. DMEM/F12 (Gibco) containing 10% fetal calf serum (Moregate BioTech) was used as medium. The next day, 50 μL of medium was extracted from each well, and 50 μL of loading buffer was added each well and allowed to react at room temperature for 1.5 h so as to incorporate fluorescent dye contained in the loading buffer into cells. The loading buffer was prepared by dissolving component A of the FLIPR Calcium 3 Assay Kit (Molecular Devices Corp.) with a solution in which 0.1 mL of 500 mM probenecid (Sigma) was added to 9.9 mL of component B. After the reaction, a change in the fluorescence intensity upon addition of CCK-BS (Peptide Institute, Osaka, Japan) was measured along with time for each well using FLEXstation (Molecular Devices Corp.). Measurement was also performed in a similar manner for CCK-8NS (Peptide Institute, Osaka, Japan) and CCK-4 (Peptide Institute). For CCK-8S (SEQ ID NO: 14), 0.52 mg thereof was dissolved with 4.5 mL of 1% NaHCO3 (Wako) to prepare a 0.1 mM concentration solution. For CCK-8NS, after dissolving 0.53 mg thereof with 0.50 mL of dimethylsulfoxide (DMSO, Sigma), 4.50 mL of redistilled water was added thereto to prepare a 0.1 mM concentration solution. For CCK-4, after dissolving 0.54 mg thereof with 0.46 mL of DMSO, 4.09 mL of redistilled water was added thereto to prepare a 0.2 mM concentration solution. CCK-8S (SEQ ID NO: 14), CCK-8NS and CCK-4 were each diluted with phosphate buffered saline (PBS) to make a 5 nM solution, and measurement was performed after adding 25 μL (final concentration 1 nM) of each. As a positive control that induces an increase in intracellular Ca^2+ concentration, A23187 (Calbiochem, Calif.) was used at a final concentration of 10 μM. As a negative control, CHO-K1 cell line that was used as a host in production of the HA-ph01207#10-6 cell line was used. Since the ph01207 expression vector was not transfected into the CHO-K1 cell line, the ph01207 gene product was not expressed therein.
(§3) Using stably expressing cell line of a splicing variant of ph01207 gene, a change in intracellular calcium concentration (Ca^2+) caused by CCK-8S was measured using the same method described in Example 5. As the stably expressing cell line of the splicing variant of ph01207 gene, the stably expressing cell line constructed in Example 7 was used. Further, using stable expressing cell line of hk01941 gene, the same investigation was conducted. As the stably expressing cell line of hk01941 gene, the stably expressing cell line constructed in Example 7 was used. As a control, a host cell which was not transfected with 7tmHR expression vector or hk01941 expression vector was used.
as §1, with “extracted” for “exited”, “well” for “well for 40 sec”, “[…]” for “pM-1”, “assay. […]” for “assay.”

7tmHR gene product = molecular target: T1, 7tmHR gene product (Homo sapiens, UniProt O60241); assay: Change in intracellular Ca2+ concentration in 7tmHR stably expressing cell line; type: cell-based; details: A23187 20 μM
T1 construct: three kinds of full length cDNA clones were obtained; expressed in transfected cells; host or cells: CHO-K1 (7tmHR/pcDNA3.1)
Experimental: as §3
as §1, with “extracted” for “exited”, “well” for “well for 40 sec”, “CCK-8S was used at a final concentration of 10 pM-1 μM. Further, A23187 was used at a final concentration of 20 μM as a positive control of the assay.” left out

hk01941 gene product = assay: Change in intracellular Ca2+ concentration in hk01941 stably expressing cell line; type: cell-based, human; details: A23187 20 μM
Experimental: as §3
as §1, with “extracted” for “exited”, “well” for “well for 40 sec”, “CCK-8S was used at a final concentration of 10 pM-1 μM. Further, A23187 was used at a final concentration of 20 μM as a positive control of the assay.” left out

[1] = molecular target: T2, protein encoded by ph01207 (Homo sapiens, UniProt O60241, DEL308-362); assay: Change in intracellular Ca2+ concentration in HA-ph01207#10-6 cell line (FLIPR Calcium 3, FLEXstation); type: cell-based; details: for rise in the intracellular Ca2+ concentration: peptide final concentration 1 nM
T2 construct: expressed in transfected cells; host or cells: CHO-K1 (HA-ph01207#10-6, FERM BP-10101)
T2 sequence (O60241 with tags, fused parts or gaps DEL308-362): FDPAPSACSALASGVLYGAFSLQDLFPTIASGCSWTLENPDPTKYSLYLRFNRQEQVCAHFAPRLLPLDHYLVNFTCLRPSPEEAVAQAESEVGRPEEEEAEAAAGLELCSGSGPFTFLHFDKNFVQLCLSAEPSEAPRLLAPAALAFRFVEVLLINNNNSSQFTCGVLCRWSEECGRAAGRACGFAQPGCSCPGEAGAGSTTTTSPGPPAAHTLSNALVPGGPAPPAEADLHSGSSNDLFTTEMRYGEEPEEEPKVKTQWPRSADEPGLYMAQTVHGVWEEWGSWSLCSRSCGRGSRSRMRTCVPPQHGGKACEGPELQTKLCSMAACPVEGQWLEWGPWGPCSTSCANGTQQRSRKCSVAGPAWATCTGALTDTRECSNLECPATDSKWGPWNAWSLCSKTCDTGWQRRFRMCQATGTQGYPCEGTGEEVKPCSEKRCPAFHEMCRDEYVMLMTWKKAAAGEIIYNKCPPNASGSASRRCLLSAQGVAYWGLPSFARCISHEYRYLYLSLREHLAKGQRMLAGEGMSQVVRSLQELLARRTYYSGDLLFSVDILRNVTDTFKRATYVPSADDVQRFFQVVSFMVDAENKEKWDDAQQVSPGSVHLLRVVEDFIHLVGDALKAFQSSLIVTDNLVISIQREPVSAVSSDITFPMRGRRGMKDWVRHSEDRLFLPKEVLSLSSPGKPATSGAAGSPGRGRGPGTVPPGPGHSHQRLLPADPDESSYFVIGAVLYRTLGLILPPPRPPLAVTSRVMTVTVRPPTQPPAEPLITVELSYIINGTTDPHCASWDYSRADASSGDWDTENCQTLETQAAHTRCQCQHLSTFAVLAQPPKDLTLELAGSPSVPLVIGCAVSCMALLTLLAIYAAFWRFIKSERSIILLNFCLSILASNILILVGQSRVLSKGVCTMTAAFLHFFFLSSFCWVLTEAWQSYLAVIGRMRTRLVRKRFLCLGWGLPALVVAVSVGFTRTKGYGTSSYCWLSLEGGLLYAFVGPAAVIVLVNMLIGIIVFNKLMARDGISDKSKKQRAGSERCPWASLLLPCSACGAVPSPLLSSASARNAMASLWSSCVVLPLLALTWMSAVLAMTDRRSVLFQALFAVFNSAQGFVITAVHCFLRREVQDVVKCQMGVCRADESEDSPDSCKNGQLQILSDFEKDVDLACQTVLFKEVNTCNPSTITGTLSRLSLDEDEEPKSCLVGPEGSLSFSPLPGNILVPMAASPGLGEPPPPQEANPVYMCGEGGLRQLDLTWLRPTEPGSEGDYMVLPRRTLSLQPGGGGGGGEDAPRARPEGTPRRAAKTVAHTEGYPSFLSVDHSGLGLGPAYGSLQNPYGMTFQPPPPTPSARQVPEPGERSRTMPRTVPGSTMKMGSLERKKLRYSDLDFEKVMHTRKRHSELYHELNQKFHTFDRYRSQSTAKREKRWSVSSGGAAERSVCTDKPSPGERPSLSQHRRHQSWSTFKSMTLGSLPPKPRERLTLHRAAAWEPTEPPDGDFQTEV
Experimental: Changes in intracellular calcium (Ca^2+) concentrations caused by CCK-8S(SEQ ID NO: 14), CCK-8NS and CCK-4 were determined using the […] expression cell lines prepared in Example 2. The cell lines prepared in Example 2 are eight lines in which the protein encoded by ph01207 expresses as a FLAG-tag fusion protein and four lines in which the protein encoded by ph01207 expresses as a HA-tag fusion protein. Among these, in this example HA-ph01207#10-6 cell line was used as a line obtained by cellular cloning of one cell line that stably expresses the protein encoded by ph01207 as a HA-tag fusion protein. Although CCK-8NS is a CCK octapeptide consisting of the same amino acid sequence as CCK-8S (SEQ ID NO: 14), the seventh tyrosine residue from the C-terminal thereof is not sulfated. CCK-4 is a tetrapeptide consisting of the amino acid residues from the C-terminus to the fourth amino acid residue of CCK-8S (SEQ ID NO: 14).
as §2, with “CCK-8S (SEQ ID NO: 14), CCK-8NS and CCK-4 were each diluted with phosphate buffered saline (PBS) to make a 5 nM solution, and measurement was performed after adding 25 μL (final concentration 1 nM) of each. As a positive control that induces an increase in intracellular Ca^2+ concentration, A23187 (Calbiochem, Calif.) was used at a final concentration of 10 μM. As a negative control, CHO-K1 cell line that was used as a host in production of the HA-ph01207#10-6 cell line was used. Since the ph01207 expression vector was not transfected into the CHO-K1 cell line, the ph01207 gene product was not expressed therein.” left out

[2] = CCK-8S administered to diabetes patients (Bo, A. et al., 2000); cited from earlier work

T1 sequence (O60241 13-1585): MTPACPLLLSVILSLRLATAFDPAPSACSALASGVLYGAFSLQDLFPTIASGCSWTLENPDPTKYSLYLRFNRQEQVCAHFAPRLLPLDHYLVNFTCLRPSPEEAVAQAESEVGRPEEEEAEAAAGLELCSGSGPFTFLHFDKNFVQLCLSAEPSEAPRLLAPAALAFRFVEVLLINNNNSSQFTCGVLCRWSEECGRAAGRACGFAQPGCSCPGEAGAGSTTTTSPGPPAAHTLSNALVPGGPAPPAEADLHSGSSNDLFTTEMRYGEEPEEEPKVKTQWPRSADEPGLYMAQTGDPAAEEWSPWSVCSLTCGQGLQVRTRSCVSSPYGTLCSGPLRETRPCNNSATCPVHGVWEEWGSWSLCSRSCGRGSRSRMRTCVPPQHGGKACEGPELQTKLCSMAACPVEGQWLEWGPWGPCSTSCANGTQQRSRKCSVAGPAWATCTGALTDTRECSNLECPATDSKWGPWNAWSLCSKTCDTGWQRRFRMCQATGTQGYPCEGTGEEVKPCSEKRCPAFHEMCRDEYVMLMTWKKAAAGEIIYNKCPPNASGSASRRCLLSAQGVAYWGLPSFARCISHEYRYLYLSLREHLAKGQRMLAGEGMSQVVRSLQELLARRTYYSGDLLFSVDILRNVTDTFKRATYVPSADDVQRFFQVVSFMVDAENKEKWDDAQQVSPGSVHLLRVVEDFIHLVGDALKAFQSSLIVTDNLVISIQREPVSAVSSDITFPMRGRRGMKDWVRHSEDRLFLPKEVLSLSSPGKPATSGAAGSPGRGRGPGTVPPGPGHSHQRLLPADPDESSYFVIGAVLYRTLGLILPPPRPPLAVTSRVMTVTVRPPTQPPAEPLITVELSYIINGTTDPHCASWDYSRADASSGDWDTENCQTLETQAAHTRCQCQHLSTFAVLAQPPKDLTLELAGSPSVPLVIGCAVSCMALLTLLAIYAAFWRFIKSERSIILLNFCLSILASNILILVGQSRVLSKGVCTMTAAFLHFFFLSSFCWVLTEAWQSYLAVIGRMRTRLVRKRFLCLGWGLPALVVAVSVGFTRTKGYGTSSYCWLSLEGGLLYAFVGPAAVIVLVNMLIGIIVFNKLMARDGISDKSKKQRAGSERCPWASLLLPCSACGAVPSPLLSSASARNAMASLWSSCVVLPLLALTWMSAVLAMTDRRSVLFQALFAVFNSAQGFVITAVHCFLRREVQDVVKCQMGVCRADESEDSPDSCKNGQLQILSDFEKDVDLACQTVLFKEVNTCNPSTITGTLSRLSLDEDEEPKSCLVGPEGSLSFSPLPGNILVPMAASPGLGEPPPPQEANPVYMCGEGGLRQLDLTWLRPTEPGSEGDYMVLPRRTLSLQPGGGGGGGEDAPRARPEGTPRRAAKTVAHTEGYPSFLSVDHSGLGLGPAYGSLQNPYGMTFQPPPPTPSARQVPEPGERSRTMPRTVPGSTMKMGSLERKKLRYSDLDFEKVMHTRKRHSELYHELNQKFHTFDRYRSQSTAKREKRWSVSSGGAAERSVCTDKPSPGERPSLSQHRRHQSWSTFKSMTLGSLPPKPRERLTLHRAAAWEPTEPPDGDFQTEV

CNc1ccc2oc(C[C@H]3O[C@@]4(CC[C@H]3C)O[C@H]([C@H](C)C(=O)c3ccc[nH]3)[C@H](C)C[C@H]4C)nc2c1C(=O)O [A23187]
response (intracellular Ca2+) to positive control (variant 3 gene product): observed similarly | response (intracellular Ca2+) to positive control (CHO-K1 cell line; CHO-K1 host cell, A23187 20 μM (Examples 8 and 9)): observed similarly | response (intracellular Ca2+) to positive control (7tmHR gene product): observed similarly | response (intracellular Ca2+) to positive control (hk01941 gene product): observed similarly

CCK-4: tetrapeptide consisting of the amino acid residues from the C-terminus to the fourth residue of CCK-8S
rise in the intracellular Ca2+ concentration [1]: not observed | increase in intracellular Ca2+ concentration (CHO-K1 cell line): no increase

CCK-8 Nonsulfated form [CCK-8NS]
rise in the intracellular Ca2+ concentration [1]: not observed | increase in intracellular Ca2+ concentration (CHO-K1 cell line): no increase

cholecystokinin octapeptide sulfated form [CCK-8S]
increase in insulin amounts [2]: promoted | increase in postcibal glucose amount [2]: suppressed | level of increase in the intracellular Ca2+ concentration compared with that produced by A23187 ([1]; 1 nM CCK-8S vs 10 μM A23187): roughly equal | rise in the intracellular Ca2+ concentration [1]: rose | increase in intracellular Ca2+ concentration (CHO-K1 cell line): no increase | change in intracellular calcium concentration (CHO-K1 cell line; host cell not transfected with variant 3 expression vector, CCK-8S (Example 9)): not observed | change in intracellular calcium concentration (CHO-K1 cell line; host cell transfected with neither 7tmHR nor hk01941 expression vector, CCK-8S (Example 8)): not observed
